Laboratory results taken from patent US20250205256A1 (GH RESEARCH IRELAND LIMITED, priority 2022, published 2025).

Tests used:
[1] = system: Salmonella typhimurium strains TA98, TA100, TA1535 and TA1537; assay: Bacterial mutation test, Salmonella typhimurium; assay type: cell-based; conditions: up to 5000 μg/plate, absence and presence of rat liver S-9
Procedure: These conditions included treatments at concentrations up to 5000 μg/plate (the maximum recommended concentration according to current regulatory guidelines), in the absence and in the presence of a rat liver metabolic activation system (S-9).

[2] = system: patient with postpartum depression (PPD); assay: Clinical trial of inhaled 5-MeO-DMT (IDR, 6 mg then 12 mg) in postpartum depression: MADRS; assay type: in vivo, human; conditions: for Total MADRS score: baseline 29
From the text: The patient completed all planned visit days.

[3] = system: patients with treatment-resistant major depressive disorder (TRD); assay: Phase 1/2 clinical trial of inhaled 5-MeO-DMT in TRD: MADRS; assay type: in vivo, human
From the text: Patients were assigned to different groups.
This trial was designed in two parts.

[4] = 12 mg n=4 sum, 2 h after dose vs baseline
[5] = 12 mg n=4 sum, 2 h after dose, baseline 16
[6] = 12 mg n=4 sum, Day 1, baseline 16
[7] = 12 mg n=4 sum, Day 1 vs baseline
[8] = 12 mg n=4 sum, Day 7, baseline 16
[9] = 12 mg n=4 sum, Day 7 vs baseline
[10] = IDR n=8 sum, 2 h after last dose vs baseline

COc1ccc2[nH]cc(CCN(C)C)c2c1 [5-MeO-DMT]
induction of mutation [1]: did not induce mutation | MADRS response (at least 50% improvement) and MADRS remission (total score ≤10) criteria ([2]; PPD n=1): fulfilled standard criteria | time to clinical response after administration ([2]; PPD n=1): ≤ 2 h | time to clinical remission after administration ([2]; PPD n=1, IDR): ≤ 2 h | Total MADRS improvement ([2]; PPD n=1, 2 hr vs baseline): 24 | Total MADRS score ([2]; PPD n=1, 2 hr): 5 | MADRS Lassitude score ([2]; PPD n=1, Day 1, baseline 3): 0 | Total MADRS score ([2]; PPD n=1, Day 1): 0 | Total MADRS improvement ([2]; PPD n=1, Day 1 vs baseline): 29 | Total MADRS score ([2]; PPD n=1, Day 7): 1 | Total MADRS improvement ([2]; PPD n=1, Day 7 vs baseline): 28 | durability of clinical response ([2]; PPD n=1, single treatment day): sustained over the 7-day follow-up period | MADRS Concentration Difficulties improvement [3, 4]: 9 | MADRS Inability to Feel improvement [3, 4]: 7 | MADRS Inner Tension improvement [3, 4]: 11 | MADRS Lassitude improvement [3, 4]: 6 | MADRS Pessimistic Thoughts improvement [3, 4]: 8 | MADRS Pessimistic Thoughts percentage improvement [3, 4]: 50.00% | MADRS Suicidal Thoughts improvement [3, 4]: 5 | MADRS Suicidal Thoughts score ([3]; 12 mg n=4 sum, 2 h after dose, baseline 8): 3 | MADRS Inner Tension score ([3]; 12 mg n=4 sum, 2 h after dose, baseline 13): 2 | MADRS Concentration Difficulties score [3, 5]: 7 | MADRS Inability to Feel score [3, 5]: 9 | MADRS Lassitude score [3, 5]: 10 | MADRS Pessimistic Thoughts score [3, 5]: 8 | MADRS Suicidal Thoughts score ([3]; 12 mg n=4 sum, Day 1, baseline 8): 5 | MADRS Reduced Sleep score ([3]; 12 mg n=4 sum, Day 1, baseline 12): 10 | MADRS Inner Tension score ([3]; 12 mg n=4 sum, Day 1, baseline 13): 3 | MADRS Concentration Difficulties score [3, 6]: 2 | MADRS Inability to Feel score [3, 6]: 1 | MADRS Pessimistic Thoughts score [3, 6]: 7 | MADRS Concentration Difficulties improvement [3, 7]: 14 | MADRS Inability to Feel improvement [3, 7]: 15 | MADRS Inner Tension improvement [3, 7]: 10 | MADRS Lassitude improvement [3, 7]: 16 | MADRS Pessimistic Thoughts improvement [3, 7]: 9 | MADRS Reduced Sleep improvement [3, 7]: 2 | MADRS Suicidal Thoughts improvement [3, 7]: 3 | MADRS Suicidal Thoughts score ([3]; 12 mg n=4 sum, Day 7, baseline 8): 7 | MADRS Reduced Sleep score ([3]; 12 mg n=4 sum, Day 7, baseline 12): 6 | MADRS Inner Tension score ([3]; 12 mg n=4 sum, Day 7, baseline 13): 5 | MADRS Concentration Difficulties score [3, 8]: 3 | MADRS Inability to Feel score [3, 8]: 1 | MADRS Lassitude score [3, 8]: 3 | MADRS Pessimistic Thoughts score [3, 8]: 8 | MADRS Concentration Difficulties improvement [3, 9]: 13 | MADRS Inability to Feel improvement [3, 9]: 15 | MADRS Inner Tension improvement [3, 9]: 8 | MADRS Lassitude improvement [3, 9]: 13 | MADRS Pessimistic Thoughts improvement [3, 9]: 8 | MADRS Pessimistic Thoughts percentage improvement [3, 9]: 50.00% | MADRS Reduced Sleep improvement [3, 9]: 6 | MADRS Reduced Sleep percentage improvement [3, 9]: 50.00% | MADRS Suicidal Thoughts improvement [3, 9]: 1 | MADRS Concentration Difficulties improvement [3, 10]: 19 | MADRS Inability to Feel improvement [3, 10]: 24 | MADRS Inner Tension improvement [3, 10]: 15 | MADRS Lassitude improvement [3, 10]: 17 | MADRS Pessimistic Thoughts improvement [3, 10]: 21 | MADRS Pessimistic Thoughts percentage improvement [3, 10]: 75.00% | MADRS Suicidal Thoughts improvement [3, 10]: 8 | MADRS Suicidal Thoughts score ([3]; IDR n=8 sum, 2 h after last dose, baseline 11): 3 | MADRS Inner Tension score ([3]; IDR n=8 sum, 2 h after last dose, baseline 26): 11 | MADRS Lassitude score ([3]; IDR n=8 sum, 2 h after last dose, baseline 27): 10 | MADRS Pessimistic Thoughts score ([3]; IDR n=8 sum, 2 h after last dose, baseline 28): 7 | MADRS Concentration Difficulties score ([3]; IDR n=8 sum, 2 h after last dose, baseline 30): 11 | MADRS Inability to Feel score ([3]; IDR n=8 sum, 2 h after last dose, baseline 36): 12 | MADRS Suicidal Thoughts score ([3]; IDR n=8 sum, Day 1, baseline 11): 1 | MADRS Reduced Sleep score ([3]; IDR n=8 sum, Day 1, baseline 25): 12 | MADRS Inner Tension score ([3]; IDR n=8 sum, Day 1, baseline 26): 6 | MADRS Lassitude score ([3]; IDR n=8 sum, Day 1, baseline 27): 5 | MADRS Pessimistic Thoughts score ([3]; IDR n=8 sum, Day 1, baseline 28): 4 | MADRS Concentration Difficulties score ([3]; IDR n=8 sum, Day 1, baseline 30): 1 | MADRS Inability to Feel score ([3]; IDR n=8 sum, Day 1, baseline 36): 2
